Experimental data from patent US4415495A, “5,6;8,9-Tetrahydro-7H-dibenz(d,f)azonines” (Godecke Aktiengesellschaft, priority 1981, dated 1983).

How the values were obtained:
[1] = system: Rats with calcium chloride induced arrhythmias; assay: Calcium chloride induced arrhythmias in narcotised rats (prophylactic i.v. administration); assay type: in vivo; details: control 10.9 min.
Text: By means of the intravenous infusion of a calcium chloride solution, […] induced in narcotised rats which, after termination of the infusion, continue for a certain period of time (modification of the method described by Malinow et al., Arch. Int. Pharmacodyn, 102, 266/1955). This arrhythmic phase is shortened by the prophylactic administration of antiarrhythmic drugs. […] The results of the experiments with calcium chloride induced arrhythmias on rats are summarized in the following Table I. The average period of arrhythmia is calculated from experiments with at least 10 animals.

[2] = system: guinea pig left ventricle; assay: Refractory time of electrically stimulated guinea pig left ventricles (organ bath)
Description: The left ventricles of guinea pig hearts are electrically stimulated in an organ bath, the amplitude of contraction being recorded. By means of a second stimulus, the time is determined below which the heart muscle no longer reacts with a separately resolvable contraction. This time is defined as the refractory time.
The following Table II contains information concerning the maximum tested compound concentrations, as well as the average prolongation of the refractory time measured at this concentration in comparison with the initial value of, in each case, at least 6 experiments.

[3] = system: dogs with coronary ligature; assay: Coronary ligature on dogs (period of sinus rhythm from ECG); assay type: in vivo
Text: Using narcotised dogs, after thoracotomy, a coronary artery (side branch of the R. interventr. post. or of the R. circumflexus) is ligatured (see. A. S. Harris, Circulation, 1, 1318/1950). The heart rhythm disturbances which occur as a result thereof are, on the day following the operation, recorded on the awake animals and treated with the compounds according to the present invention by intragastral and intravenous administration. Procainamide is used as a positive standard. From the ECG, the time is determined in which, after administration of the test compound, a sinus rhythm can be recognized.
The compounds of Examples 1 (Table III), 4 (Table IV) and 10 (Table V) were tested on dogs with a coronary ligature. All the compounds were, in each case, tested on at least 5 animals.

rabbit eye = assay: Local anesthetic action on the rabbit eye (corneal reflex); assay type: in vivo, rabbits; details: for Period of Action: observation discontinued after 60 minutes
Description: The corneal reflex is induced in rabbits using a horse hair which bends with a pressure of about 250 mg (modification of the method described by M. von Frey, Beitrage zur Physiologie des Schmerzsinns, Vehr. d. Kgl. Sachs, Ges. d. Wiss. zu Leipzig, Math.-phys. Kl., 46, 185/1894; Untersuchungen uber die Sinnesfunktionen der menschlichen Haut, Leipzig, 1896). After instillation of local anesthetics into the conjunctival sac of the eye, the number of impacts with the horse hair which result in closure of the eyelid is increased. At intervals of 4 minutes, in each case a maximum of 100 successive impacts are carried out and such an action is taken as being 100%. The period of investigation is at most 60 minutes. The action of the compounds according to the present invention is compared with that of tetracaine and procainamide.
The following Table VII contains the results of the experiments on the rabbit eye. There are also given, in addition to the concentrations of the test solutions which were instilled into the conjunctival sac, the actions of the compounds in % (see description of the method), as well as their period of action. In each case, the observations were discontinued after 60 minutes.

in vivo = details: mouse, po
Description: The compounds according to the present invention are administered intragastrally to male mice (NMRI) with a body weight of from 20 to 25 g. Each dosage group consists of 4 animals. The LD50 values are determined after having observed the animals for 7 days.

[4] = Oryctolagus cuniculus, topical, concentration 0.5 %

Structure (SMILES) | average period of arrhythmia ([1]; 2.5 mg/kg I.V.) | average prolongation of the refractory time ([2]; 8.0 × 10^-6 g/ml in the bath) | average period of eurhythmia ([3]; 4 mg/kg i.v.) | average period of eurhythmia ([3]; 10 mg/kg i.g.) | average period of eurhythmia ([3]; 15 mg/kg i.g.) | average period of eurhythmia ([3]; 20 mg/kg i.g.) | average period of eurhythmia ([3]; 25 mg/kg i.g.) | inhibition in vivo at 0.1 % (rabbit eye; Oryctolagus cuniculus, topical, concentration 0.1 %) | inhibition in vivo at 0.5 % (rabbit eye; [4]) | Period of Action (rabbit eye; concentration 0.1 %) | Period of Action (rabbit eye; concentration 0.5 %) | LD50 at 168 h (in vivo) | average period of arrhythmia ([1]; 10 mg/kg I.V.) | average prolongation of the refractory time ([2]; 6.4 × 10^-5 g/ml in the bath) | average period of eurhythmia ([3]; 10 mg/kg i.v.) | inhibition in vivo at 2 % (rabbit eye; Oryctolagus cuniculus, topical, concentration 2.0 %) | Period of Action (rabbit eye; concentration 2.0 %) | local anesthetic activity (in words) (rabbit eye; versus procainamide and tetracaine)
COc1ccc2c(c1)-c1c(ccc(OC)c1O)CC(Cc1ccccc1)N(C)CC2 (single isomer, unassigned; (-)) [Example 1, (-)-6-Benzyl-2,12-dimethoxy-1-hydroxy-7-methyl-5,6;8,9-tetrahydro-7H-dibenz(d,f)azonine] | 4.0 min | 43 ms | 62 min | 49 min | 99 min | 105 min | 198 min | 89% | 100% | about 49 Min. | > 60 min | 680 mg/kg |  |  |  |  |  | 
CCN(CC)CCNC(=O)c1ccc(N)cc1 [procainamide, reference compound] |  |  |  |  |  |  |  |  | 1% |  | 0 min | 1200 mg/kg | 7.3 min | 7 ms | 19 min | 1% | 0 min | inactive
